Laboratory results from patent publication US20030104461A1, “Methods for detecting cells with numerical chromosomal abnormalities” (priority 2001, published 2003).
Read-outs that look alike come from different tables or passages of the source.

Tests used:
human lymphocytes [1] = assay: Manual microscopic analysis of polyploid cells (polyploid index, Giemsa stained slides); type: cell-based; conditions: at each concentration of Noscapine; 1000 consecutive mitotic cells scored for 8n mitotic cells
Procedure: Human lymphocytes described above and treated or not with Noscapine as described above were subjected to manual analysis of numerical chromosomal abnormalities for comparison with the number of cells having numerical chromosomal abnormalities (i.e. polyploidy) obtained in Example 1. For manual analysis, samples of cells were centrifuged for 6 minutes at 1000 rpm. The supernatant was removed and the cell pellet was resuspended in 5 ml of 1% pre-warmed (37° C.) sodium citrate. The latter solution was prepared by mixing 1 g of […] (Sigma Chemicals) in 100 ml of distilled water. The cells were immediately centrifuged as described above. The supernatant was removed and the pellet was vigorously re-suspended in 5 ml of 4° C. fixative (3:1 methanol:acetic acid). The cells were then centrifuged as described above and the pellet resuspended in 5 ml of 4° C. fixative (3:1 methanol:acetic acid). The cells were then stored overnight at −20° C. or until slide preparation. The slides were prepared as follows. The cells were centrifuged as described above and the supernatant was then poured off. The pellet was re-suspended in about 2 ml of fresh fixative solution. […] The polyploid index was determined by systematically scoring 1000 consecutive mitotic cells for the frequency of 8n mitotic cells under low magnification (bright field).

human lymphocytes [2] = test system: human lymphocytes
Procedure: Peripheral blood was collected in heparinized vacutainers from healthy male and female volunteers (<40 years of age). Approximate 10 ml of whole blood was dispensed into a Lymphoprep™ tube (Nycomed Pharma AS Diagnostic, Oslo, Norway) containing ˜10 ml of sterile phosphate buffered saline. Following centrifugation for 20 minutes at 2000 rpm, the lymphocyte population was isolated and washed (1X) in PBS. Stock cultures of isolated lymphocytes were established in Williams E medium supplemented with 10% fetal calf serum, 100 U/ml penicillin and 100 ug/ml streptomycin, 2 mM L-glutamine and 1.0% Phytohemmaglutanin-M form (all reagents from Gibco BRL Life Technologies, Inc., Grand Island, N.Y.). The stock cultures were maintained at 37° C. in 5% CO2 atmosphere for about 48 hours. The lymphocytes were treated with 0 to 100 μg/ml of the aneugen, Noscapine, (Sigma Chemicals), a known aneugen, for 24 hours at 37° C.
The Noscapine treated and untreated lymphocytes, were then centrifuged for 6 minutes at 1000 rpm, the supernatant was removed and the lymphocytes were resuspended in 5 ml of Phosphate Buffered Saline (PBS; GIBCO BRL). The lymphocytes were then centrifuged, the supernatant removed, and the cells resuspended in 0.5 ml of PBS. The cell suspension was pipetted thoroughly through a 9-inch Pasteur pipette (Kimble Glass Inc.) to ensure single cell suspension. While vortexing a tube containing −20° C. (70%) ethanol (about 4.5 ml volume), the cell suspension was added drop by drop. The ethanol solution was prepared by adding 30 ml of distilled water to 70 ml of 200 proof ethyl alcohol from Phamco Products. The cells were then stored at −20° C. in the ethanol for at least 24 hours.
The cells that were stored at −20° C. for at least 24 hours were stained with the H3-P antibody and Alexa Fluor as described above for the H3-P+Alexa (GREEN) stained cells. After the incubation of the cells for 30 minutes at 37° C. with the Alexa Fluor, 5 ml of PBS was added to the cells, the cells were centrifuged, the supernatant removed and the cell pellet resuspended in 1.0 ml of PI/RNase A stain (as described above). The cells were stored on ice until analyzed.
Exited instrument set up mode to acquisition mode. Acquisition for DNA analysis was started and 10,000 ungated cells were acquired. […] The FL2 voltage was optimized as needed per sample (i.e., to keep the G1 peak on 200 of FL2-A x-axis) for Aneuploidy and Polyploidy acquisition. 50,000 ungated cells were acquired from each sample. The data was saved in listmode format.
The presence of aneuploid and polyploid cells in the lymphocytes was determined as follows. CellQuest™ Software was opened, and PLOT and OPEN a dialog box from the tool bar for creating a dot plot. FILE was selected and a data file was opened. […] The dot plot was expanded to the width of the paper. A gate was set for the DNA distribution by starting slightly to the left of the cycling population then continuing to the far right region of the dot plot ending the gate at the 2nd Y axis. The extension of this gate to the 2nd Y-axis of the dot plot was to accommodate cells with greater than 4n DNA (see FIG. 1A). PLOT and OPEN a dialog box was chosen from the tool bar for creating a dot plot.
Using the interphase cells as a guide, the first gate was set over the mitotic cell area above the G0G1-S phase areas.

[3] = stimulated human lymphocytes treated 24 hours at 37° C., flow cytometry

## COc1ccc2c(c1OC)C(=O)O[C@@H]2[C@H]1c2c(cc3c(c2OC)OCO3)CCN1C [Noscapine]
Human lymphocytes [1]
  number of polyploid cells counted manually compared with flow cytometric evaluation: similar

## CN[C@H]1CCc2cc(OC)c(OC)c(OC)c2-c2ccc(OC)c(=O)cc21 [Colcemid®, Colcemid]
Human lymphocytes [2]
  percent of hyperdiploid cells (mitotic cells with DNA content >4n but <8n): increased
  percent of hypodiploid cells (mitotic cells with DNA content >2n but <4n): increased
  percent of polyploid cells (mitotic cells with DNA content of 8N): high

## C=C1[C@@H](C)[C@H]2[C@H](Cc3ccccc3)NC(=O)[C@]23OC(=O)/C=C/[C@H](O)CCC[C@@H](C)C/C=C/[C@H]3[C@@H]1O [Cytochalasin B]
Human lymphocytes [2]; [3]
  percent of hyperdiploid cells (mitotic cells with DNA content >4n but <8n): minimal
  percent of hypodiploid cells (mitotic cells with DNA content >2n but <4n): high
  percent of polyploid cells (mitotic cells with DNA content of 8N): high
